In US8389523B2, “Substituted quinoxaline and an agrochemical composition thereof” (Kumiai Chemical Industry Co., Ltd., priority 2007, dated 2013):

Columns and labels:
Type in all cases: in vivo
Design in all cases: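 grade 0 to 5 of growth suppression where 5 is 90% or more and 0 below 10%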
[1] = system: Abutilon theophrasti medicus; assay: Herbicidal effects in upland field soil treatment (Test Example 2); details: 1000 g active ingredient per hectare, 21st day after treatment, criteria of Table 138
Protocol: (§1) Test Example 2 Test on Herbicidal Effects in Upland Field Soil Treatment A 80-cm^2 plastic pot was filled with upland field soil. Seeds of Abutilon theophrasti medicus and Amaranthus viridis L. were sowed, and soil was covered. A wettable powder formulation prepared according to Preparation Example 1 was diluted with water, and was uniformly sprayed on the soil surface with a small sprayer, in an amount equivalent to 1000 liters per hectare, such that 1000 g of the active ingredient per hectare was applied. Thereafter, the plants were grown in a greenhouse, and on the 21st day after the treatment, the herbicidal effects were investigated according to the criteria described in the Table 138 shown above.

Amaranthus viridis L. = assay: as above; details: 1000 g active ingredient per hectare, 21st day after treatment, criteria of Table 138
Protocol: as §1

[2] = system: Echinochloa oryzicola Vasing; assay: Herbicidal effects in paddy field soil treatment (Test Example 1); details: paddy field soil treatment; 1000 g of the active ingredient per hectare; wettable powder added dropwise on water surface; 21st day after treatment
Protocol: (§2) Test for Herbicidal Effects in Paddy Field Soil Treatment
(§3) A 100-cm^2 plastic pot was filled with paddy field soil. After puddling and leveling, seeds of Echinochloa oryzicola Vasing, Monochoria vaginalis (Burm. f.) Presl var. plantaginea (Roxb.) Solms-Laub., and Scirpus juncoides Roxb. var. ohwianus. T. Koyama were sowed, and the soil was waterlogged to a water depth of 3 cm. On the next day, a wettable powder formulation prepared according to Preparation Example 1 was diluted with water, and was added dropwise on the water surface. The amount of application was an amount equivalent to 1000 g of the active ingredient per hectare. Thereafter, the plants were grown in a greenhouse, and on the 21st day after the treatment, the herbicidal effects were investigated according to the criteria described in Table 138.

[3] = system: Monochoria vaginalis (Burm. f.) Presl var. plantaginea (Roxb.) Solms-Laub.; assay: as above; details: paddy field soil treatment; 1000 g of the active ingredient per hectare; wettable powder added dropwise on water surface; 21st day after treatment
Protocol: as §2, §3

[4] = system: Scirpus juncoides Roxb. var. ohwianus. T. Koyama; assay: as above; details: paddy field soil treatment; 1000 g of the active ingredient per hectare; wettable powder added dropwise on water surface; 21st day after treatment
Protocol: as §2, §3

Compound: COc1c(F)cc(-n2c(=O)c(C(=O)C3=C(O)CCCC3=O)nc3c(F)cccc32)cc1F [II-235]
- herbicidal effect (index) on Abutilon theophrasti medicus [1]: 4
- herbicidal effect (index) on Amaranthus viridis L. (Amaranthus viridis L.): 5
- Herbicidal effects index, Echinochloa oryzicola Vasing [2]: 4
- Herbicidal effects index, Monochoria vaginalis (Burm. f.) Presl var. plantaginea (Roxb.) Solms-Laub. [3]: 5
- Herbicidal effects index, Scirpus juncoides Roxb. var. ohwianus. T. Koyama [4]: 5

Compound: COc1ccc(-n2c(=O)c(C(=O)C3=C(O)CCCC3=O)nc3c(F)cc(F)cc32)cc1 [II-259]
- herbicidal effect (index) on Abutilon theophrasti medicus [1]: 5
- herbicidal effect (index) on Amaranthus viridis L. (Amaranthus viridis L.): 5
- Herbicidal effects index, Echinochloa oryzicola Vasing [2]: 4
- Herbicidal effects index, Monochoria vaginalis (Burm. f.) Presl var. plantaginea (Roxb.) Solms-Laub. [3]: 5
- Herbicidal effects index, Scirpus juncoides Roxb. var. ohwianus. T. Koyama [4]: 5

Compound: O=C1CCCC(O)=C1C(=O)c1nc2cccc(Cl)c2n(-c2ccccc2)c1=O [II-193]
- herbicidal effect (index) on Abutilon theophrasti medicus [1]: 5
- herbicidal effect (index) on Amaranthus viridis L. (Amaranthus viridis L.): 5
- Herbicidal effects index, Echinochloa oryzicola Vasing [2]: 5
- Herbicidal effects index, Monochoria vaginalis (Burm. f.) Presl var. plantaginea (Roxb.) Solms-Laub. [3]: 5
- Herbicidal effects index, Scirpus juncoides Roxb. var. ohwianus. T. Koyama [4]: 5

Compound: C=CCOc1ccc(-n2c(=O)c(C(=O)C3=C(O)CCCC3=O)nc3ccccc32)cc1 [II-81]
- herbicidal effect (index) on Abutilon theophrasti medicus [1]: 5
- herbicidal effect (index) on Amaranthus viridis L. (Amaranthus viridis L.): 5
- Herbicidal effects index, Echinochloa oryzicola Vasing [2]: 5
- Herbicidal effects index, Monochoria vaginalis (Burm. f.) Presl var. plantaginea (Roxb.) Solms-Laub. [3]: 5
- Herbicidal effects index, Scirpus juncoides Roxb. var. ohwianus. T. Koyama [4]: 5

Compound: CCn1c(=O)c(C(=O)C2=C(O)CCCC2=O)nc2c(Cl)cccc21 [I-363]
- herbicidal effect (index) on Abutilon theophrasti medicus [1]: 5
- herbicidal effect (index) on Amaranthus viridis L. (Amaranthus viridis L.): 5
- Herbicidal effects index, Echinochloa oryzicola Vasing [2]: 5
- Herbicidal effects index, Monochoria vaginalis (Burm. f.) Presl var. plantaginea (Roxb.) Solms-Laub. [3]: 5
- Herbicidal effects index, Scirpus juncoides Roxb. var. ohwianus. T. Koyama [4]: 5

Compound: O=C1CCCC(O)=C1C(=O)c1nc2ccccc2n(-c2ccc3c(c2)OCCCO3)c1=O [II-232]
- herbicidal effect (index) on Abutilon theophrasti medicus [1]: 4
- herbicidal effect (index) on Amaranthus viridis L. (Amaranthus viridis L.): 5
- Herbicidal effects index, Echinochloa oryzicola Vasing [2]: 4
- Herbicidal effects index, Monochoria vaginalis (Burm. f.) Presl var. plantaginea (Roxb.) Solms-Laub. [3]: 5
- Herbicidal effects index, Scirpus juncoides Roxb. var. ohwianus. T. Koyama [4]: 5

Compound: COc1ccc(-n2c(=O)c(C(=O)C3=C(O)CCCC3=O)nc3ccccc32)cc1C [II-180]
- herbicidal effect (index) on Abutilon theophrasti medicus [1]: 4
- herbicidal effect (index) on Amaranthus viridis L. (Amaranthus viridis L.): 5
- Herbicidal effects index, Echinochloa oryzicola Vasing [2]: 5
- Herbicidal effects index, Monochoria vaginalis (Burm. f.) Presl var. plantaginea (Roxb.) Solms-Laub. [3]: 5
- Herbicidal effects index, Scirpus juncoides Roxb. var. ohwianus. T. Koyama [4]: 5

Compound: CSCn1c(=O)c(C(=O)C2=C(O)CCCC2=O)nc2cccnc21 [III-70]
- herbicidal effect (index) on Abutilon theophrasti medicus [1]: 5
- herbicidal effect (index) on Amaranthus viridis L. (Amaranthus viridis L.): 5
- Herbicidal effects index, Echinochloa oryzicola Vasing [2]: 4
- Herbicidal effects index, Monochoria vaginalis (Burm. f.) Presl var. plantaginea (Roxb.) Solms-Laub. [3]: 5
- Herbicidal effects index, Scirpus juncoides Roxb. var. ohwianus. T. Koyama [4]: 5

Compound: O=C1CCCC(O)=C1C(=O)c1nc2cc(F)ccc2n(-c2ccc3c(c2)OCCO3)c1=O [II-240]
- herbicidal effect (index) on Abutilon theophrasti medicus [1]: 5
- herbicidal effect (index) on Amaranthus viridis L. (Amaranthus viridis L.): 5
- Herbicidal effects index, Echinochloa oryzicola Vasing [2]: 4
- Herbicidal effects index, Monochoria vaginalis (Burm. f.) Presl var. plantaginea (Roxb.) Solms-Laub. [3]: 5
- Herbicidal effects index, Scirpus juncoides Roxb. var. ohwianus. T. Koyama [4]: 5

Compound: COc1ccc(-n2c(=O)c(C(=O)C3=C(O)CCCC3=O)nc3ccccc32)c(F)c1 [II-174]
- herbicidal effect (index) on Abutilon theophrasti medicus [1]: 4
- herbicidal effect (index) on Amaranthus viridis L. (Amaranthus viridis L.): 5
- Herbicidal effects index, Echinochloa oryzicola Vasing [2]: 5
- Herbicidal effects index, Monochoria vaginalis (Burm. f.) Presl var. plantaginea (Roxb.) Solms-Laub. [3]: 5
- Herbicidal effects index, Scirpus juncoides Roxb. var. ohwianus. T. Koyama [4]: 5

Compound: COc1ccc(-n2c(=O)c(C(=O)C3=C(O)CCCC3=O)nc3c(Cl)cccc32)cn1 [I-379]
- herbicidal effect (index) on Abutilon theophrasti medicus [1]: 5
- herbicidal effect (index) on Amaranthus viridis L. (Amaranthus viridis L.): 5
- Herbicidal effects index, Echinochloa oryzicola Vasing [2]: 5
- Herbicidal effects index, Monochoria vaginalis (Burm. f.) Presl var. plantaginea (Roxb.) Solms-Laub. [3]: 5
- Herbicidal effects index, Scirpus juncoides Roxb. var. ohwianus. T. Koyama [4]: 5

Compound: CC1CC(C)(C)C(O)=C(C(=O)c2nc3ccccc3n(-c3ccc4c(c3)OCCO4)c2=O)C1=O (stereo not drawn) [II-230]
- herbicidal effect (index) on Abutilon theophrasti medicus [1]: 4
- herbicidal effect (index) on Amaranthus viridis L. (Amaranthus viridis L.): 5
- Herbicidal effects index, Echinochloa oryzicola Vasing [2]: 4
- Herbicidal effects index, Monochoria vaginalis (Burm. f.) Presl var. plantaginea (Roxb.) Solms-Laub. [3]: 5
- Herbicidal effects index, Scirpus juncoides Roxb. var. ohwianus. T. Koyama [4]: 5

Compound: COc1ccc(-n2c(=O)c(C(=O)C3=C(O)CCCC3=O)nc3ccc(C)cc32)cc1 [II-247]
- herbicidal effect (index) on Abutilon theophrasti medicus [1]: 5
- herbicidal effect (index) on Amaranthus viridis L. (Amaranthus viridis L.): 5
- Herbicidal effects index, Echinochloa oryzicola Vasing [2]: 4
- Herbicidal effects index, Monochoria vaginalis (Burm. f.) Presl var. plantaginea (Roxb.) Solms-Laub. [3]: 5
- Herbicidal effects index, Scirpus juncoides Roxb. var. ohwianus. T. Koyama [4]: 5

Compound: COc1ccc(-n2c(=O)c(C(=O)C3=C(O)CCCC3=O)nc3c(C)cccc32)cc1 [II-245]
- herbicidal effect (index) on Abutilon theophrasti medicus [1]: 5
- herbicidal effect (index) on Amaranthus viridis L. (Amaranthus viridis L.): 5
- Herbicidal effects index, Echinochloa oryzicola Vasing [2]: 5
- Herbicidal effects index, Monochoria vaginalis (Burm. f.) Presl var. plantaginea (Roxb.) Solms-Laub. [3]: 5
- Herbicidal effects index, Scirpus juncoides Roxb. var. ohwianus. T. Koyama [4]: 5

Compound: CC(C)c1cccc(-n2c(=O)c(C(=O)C3=C(O)CCCC3=O)nc3ccccc32)c1 [II-29]
- herbicidal effect (index) on Abutilon theophrasti medicus [1]: 4
- herbicidal effect (index) on Amaranthus viridis L. (Amaranthus viridis L.): 5
- Herbicidal effects index, Echinochloa oryzicola Vasing [2]: 5
- Herbicidal effects index, Monochoria vaginalis (Burm. f.) Presl var. plantaginea (Roxb.) Solms-Laub. [3]: 5
- Herbicidal effects index, Scirpus juncoides Roxb. var. ohwianus. T. Koyama [4]: 5

Compound: O=C1CCCC(O)=C1C(=O)c1nc2ccccc2n(-c2ccc3ccccc3c2)c1=O [I-264]
- herbicidal effect (index) on Abutilon theophrasti medicus [1]: 4
- herbicidal effect (index) on Amaranthus viridis L. (Amaranthus viridis L.): 5
- Herbicidal effects index, Echinochloa oryzicola Vasing [2]: 4
- Herbicidal effects index, Monochoria vaginalis (Burm. f.) Presl var. plantaginea (Roxb.) Solms-Laub. [3]: 5
- Herbicidal effects index, Scirpus juncoides Roxb. var. ohwianus. T. Koyama [4]: 5

Compound: O=C1CCCC(O)=C1C(=O)c1nc2ccccc2n(-c2ccc(Cl)nn2)c1=O [I-273]
- herbicidal effect (index) on Abutilon theophrasti medicus [1]: 5
- herbicidal effect (index) on Amaranthus viridis L. (Amaranthus viridis L.): 5
- Herbicidal effects index, Echinochloa oryzicola Vasing [2]: 5
- Herbicidal effects index, Monochoria vaginalis (Burm. f.) Presl var. plantaginea (Roxb.) Solms-Laub. [3]: 5
- Herbicidal effects index, Scirpus juncoides Roxb. var. ohwianus. T. Koyama [4]: 5

Compound: COc1ccc(-n2c(=O)c(C(=O)C3=C(O)CCCC3=O)nc3c(F)cccc32)cn1 [I-279]
- herbicidal effect (index) on Abutilon theophrasti medicus [1]: 5
- herbicidal effect (index) on Amaranthus viridis L. (Amaranthus viridis L.): 5
- Herbicidal effects index, Echinochloa oryzicola Vasing [2]: 4
- Herbicidal effects index, Monochoria vaginalis (Burm. f.) Presl var. plantaginea (Roxb.) Solms-Laub. [3]: 5
- Herbicidal effects index, Scirpus juncoides Roxb. var. ohwianus. T. Koyama [4]: 5

Compound: Cc1ccc(-n2c(=O)c(C(=O)C3=C(O)CCCC3=O)nc3ccccc32)cc1Cl [II-216]
- herbicidal effect (index) on Abutilon theophrasti medicus [1]: 4
- herbicidal effect (index) on Amaranthus viridis L. (Amaranthus viridis L.): 5
- Herbicidal effects index, Echinochloa oryzicola Vasing [2]: 5
- Herbicidal effects index, Monochoria vaginalis (Burm. f.) Presl var. plantaginea (Roxb.) Solms-Laub. [3]: 5
- Herbicidal effects index, Scirpus juncoides Roxb. var. ohwianus. T. Koyama [4]: 5

Compound: COc1ccc2nc(C(=O)C3=C(O)CCCC3=O)c(=O)n(-c3ccc(C)cc3)c2c1 [II-306]
- herbicidal effect (index) on Abutilon theophrasti medicus [1]: 5
- herbicidal effect (index) on Amaranthus viridis L. (Amaranthus viridis L.): 5
- Herbicidal effects index, Echinochloa oryzicola Vasing [2]: 5
- Herbicidal effects index, Monochoria vaginalis (Burm. f.) Presl var. plantaginea (Roxb.) Solms-Laub. [3]: 5
- Herbicidal effects index, Scirpus juncoides Roxb. var. ohwianus. T. Koyama [4]: 5

Compound: COc1ccc2nc(C(=O)C3=C(O)CCCC3=O)c(=O)n(C)c2c1 [I-238]
- herbicidal effect (index) on Abutilon theophrasti medicus [1]: 5
- herbicidal effect (index) on Amaranthus viridis L. (Amaranthus viridis L.): 4
- Herbicidal effects index, Echinochloa oryzicola Vasing [2]: 5
- Herbicidal effects index, Monochoria vaginalis (Burm. f.) Presl var. plantaginea (Roxb.) Solms-Laub. [3]: 4
- Herbicidal effects index, Scirpus juncoides Roxb. var. ohwianus. T. Koyama [4]: 5
